# System: MALME3 melanoma viability, CellTiter-Glo luminescence, 24 h
# Assay: MALME3 melanoma cell viability loss, dose response, orthogonal assay for MITF inhibitor project, CellTiter-Glo, cherry-picked (AID 493191)
row,Compound,AC50
1,Cc1ccc(C(=O)N/C(=C\c2ccc(-c3ccc(Br)cc3)o2)C(=O)NCCCN(C)C)cc1,14.2 µM
2,O=C(Nc1nc(-c2ccccn2)cs1)c1ccc([N+](=O)[O-])o1,28.5 µM
3,O=C(Cn1ncc(Cl)c(Cl)c1=O)NCC1CCCCC1,9.94 µM
4,O=C(NC1=C(Nc2ccc(Cl)cc2)C(=O)c2ccccc2C1=O)c1ccccc1,20.3 µM
5,COc1ccc(C(=O)/C=C/C(=O)N(CC(=O)NC2CCCCC2)Cc2cccs2)c(O)c1,5.25 µM
6,Cc1ccc(C)c(NC(=O)/C(C#N)=C/c2cn(CC(=O)NCc3ccco3)c3ccccc23)c1,18.6 µM
7,CC1(C)CC(NC(=O)c2ccc(Cl)c(S(=O)(=O)N(Cc3ccccc3)c3ccccc3)c2)CC(C)(C)N1,22.7 µM
8,CCCCC[n+]1ccn(C2=C([O-])c3ccccc3C(=O)/C2=N\S(=O)(=O)c2ccccc2)c1,14.2 µM
9,COc1cccc(/C=N/Nc2ccc(C(=O)O)cc2)c1O,33.2 µM
10,CCCCn1c(=N)n(CC(=O)c2ccc(Br)s2)c2ccccc21,33.2 µM
11,O=[N+]([O-])c1ccc(/C=N/n2cnc3ccccc32)s1,8.99 µM
12,O=C(Cn1ncc(Cl)c(Cl)c1=O)N1CCOCC1,20.6 µM
13,COC(=O)CCS(=O)(=O)c1nc(-c2ccccc2)cc(C(F)(F)F)n1,14.9 µM
14,O=C1c2cc(F)ccc2-n2c1nc1ccccc1c2=O,4.39 µM
15,O=C(N/N=C/c1ccc([N+](=O)[O-])s1)C(O)c1ccccc1 (stereo unspecified),22.7 µM
16,CC(=O)Nc1ccc(NC(=O)c2nc(S(=O)(=O)Cc3ccccc3)ncc2Cl)cc1,5.12 µM
17,CC(=O)Nc1sc(C)c(C)c1C(=O)OCC(=O)N(CC(C)C)c1c(N)n(Cc2ccccc2)c(=O)[nH]c1=O,6.17 µM
18,O=C1C(Cl)=C(Nc2ccccc2)C(=O)c2ccccc21,5.66 µM
19,CC(C)C(CCNC1CCN(C)CC1)c1ccc(Cl)cc1 (stereo unspecified),24.3 µM
20,Cc1ccc2[nH]c(=O)c(CN(CCCN(C)C)C(=O)Nc3cccc(Cl)c3)cc2c1,24.9 µM
21,CN(C)CCCNC(=O)/C(=C\c1ccc(-c2ccc(Br)cc2)o1)NC(=O)c1ccccc1,16.3 µM
22,CC(C)(C)C(=O)Cn1ncc(Cl)c(Cl)c1=O,18 µM
23,O=C(Cc1ccc2c(c1)OCO2)NN=Cc1ccc([N+](=O)[O-])o1,19.1 µM
24,Cc1cc(C)cc(OCC(=O)N/N=C/c2ccc([N+](=O)[O-])o2)c1,22.9 µM
25,O=C(/C=C/c1ccc(Cl)cc1)c1ccc([N+](=O)[O-])o1,24.5 µM
26,O=C(c1ccccc1)c1cc(Cl)ccc1N1C(=O)C=CC1=O,9.06 µM

row,Compound,AC50
1,CN(C)CCNC(=O)/C(=C/c1ccc(-c2ccc(Cl)cc2Cl)o1)NC(=O)c1ccccc1,18 µM
2,COc1cc(NC(=O)c2ccc([N+](=O)[O-])o2)ccc1NC(=O)c1cccs1,13.1 µM
3,CCC(=O)OCCNc1cc(Sc2nccn2C)c2nonc2c1[N+](=O)[O-],27.4 µM
4,Cc1ccc(NC(=O)Cn2ncc(Cl)c(Cl)c2=O)cc1S(=O)(=O)N1CCCCC1,15.8 µM
5,COc1ccccc1OCC(=O)N/N=C/C=C/c1ccc([N+](=O)[O-])o1,20.6 µM
6,Cc1ccc(NC2=C(Cl)C(=O)c3ccccc3C2=O)cc1,6.96 µM
7,O=c1c2ccccc2nc(/C=C/c2ccc([N+](=O)[O-])o2)n1-c1ccc(O)cc1,14.5 µM
8,CCN1c2ccccc2NC2N=C(OC)C(c3ccccc3)C21 (stereo unspecified),7.13 µM
9,N=c1n(CC(=O)c2ccc(Br)s2)c2ccccc2n1Cc1ccccc1,24.7 µM
10,CCCCn1c(=N)n(CCOc2ccc(C)cc2)c2ccccc21,26.5 µM
11,Cc1cc(NC(=O)c2ccc([N+](=O)[O-])o2)ccc1NC(=O)c1ccco1,12.5 µM
12,CCCCN1C=CC(=C2C(=O)c3ccccc3C2=O)C=C1,27.3 µM
13,CC1C/C(=C\c2cccnc2)C(=O)/C(=C/c2cccnc2)C1 (stereo unspecified),3.9 µM
14,O=C(C#Cc1ccccc1)c1cccc([N+](=O)[O-])c1,10.8 µM
15,O=C(N/N=C/c1ccc([N+](=O)[O-])s1)c1cccc(Br)c1,29.9 µM
16,CCN1CCCC1CNC(=O)c1ccc2c(c1)NC(=O)/C(=C\c1ccc(C)cc1)S2 (stereo unspecified),26 µM
17,Cc1[nH]c2ccccc2c1C(=O)CCl,27.6 µM
18,Cc1ccc(Cn2c(=N)n(CC(=O)c3ccc([N+](=O)[O-])cc3)c3ccccc32)cc1,18.6 µM
19,Cc1c(N=C2C=CC(=O)c3ccccc32)c(=O)n(-c2ccccc2)n1C,32 µM
20,Cc1ccccc1OCC(=O)N/N=C/c1ccc([N+](=O)[O-])o1,26.3 µM
21,CCCC(=O)N1CCN(c2ccc(NC(=O)c3ccc([N+](=O)[O-])o3)cc2Cl)CC1,14.4 µM
22,CC1CCC(C(C)C)C(OC(=O)Cn2c(-c3ccc(Cl)cc3)[n+](C)c3ccccc32)C1 (stereo unspecified),11.7 µM
23,CC1(C(=O)N/N=C/c2ccc([N+](=O)[O-])o2)CC1(Br)Br (stereo unspecified),34 µM
24,Nc1c(N(CCC2=CCCCC2)C(=O)COc2ccc(F)cc2)c(=O)[nH]c(=O)n1Cc1ccccc1,15.8 µM
25,O=C(Nc1cccc(S(=O)(=O)N2CCCCC2)c1)c1ccc([N+](=O)[O-])o1,15.9 µM
26,O=C(CS(=O)c1ccc(C(F)(F)F)cc1[N+](=O)[O-])Oc1ccccc1 (stereo unspecified),20.7 µM

row,Compound,AC50
1,CC(C)C(=O)N1CCN(c2ccc(NC(=O)c3ccc([N+](=O)[O-])o3)cc2Cl)CC1,19.2 µM
2,OC(CNCC(c1ccc(Cl)cc1Cl)c1c[nH]c2ccccc12)c1ccccc1 (stereo unspecified),19.1 µM
3,C=Cc1ncc(OC)c2c1[nH]c1ccccc12,31.5 µM
4,COc1ccccc1CNCC(O)Cn1c2ccccc2c2ccccc21 (stereo unspecified),20 µM
5,Cc1c(C(=O)Nc2ccc(S(=O)(=O)N(C)C3CCN(C)CC3)cc2)oc2c(Cl)cccc12,26.4 µM
6,COc1ccc(S(=O)(=O)N2CCCCC2)cc1NC(=O)c1ccc([N+](=O)[O-])o1,14.3 µM
7,Cn1cc([N+](=O)[O-])c(C(=O)Nc2nc(-c3ccc(Cl)cc3)cs2)n1,26.5 µM
8,O=C(Nc1ccccc1N1CCOCC1)c1ccc([N+](=O)[O-])s1,30.9 µM
9,CCOC(=O)N1C(=O)[C@@](CC)(c2ccccc2)N1C(=O)OCC,26.2 µM
10,CCCCCCCNC(=O)C1(CC2CC(c3ccc(Cl)cc3)=NO2)CCNCC1 (stereo unspecified),15.2 µM
11,CN(C)c1nc(C=C(C#N)C#N)c(Cl)n1-c1ccc(F)cc1,21.2 µM
12,N#CCc1ccc(NC(=O)/C=C/c2ccc([N+](=O)[O-])o2)cc1,10.4 µM
13,CC(NC(=O)C12CC3CC(CC(C3)C1)C2)C(=O)NN=Cc1ccc([N+](=O)[O-])o1 (stereo unspecified),26.9 µM
14,Oc1ccc(CNc2ccccc2F)c2cccnc12,28.2 µM
15,CC1CCC(C(C)C)C(OC(=O)Cn2c(-c3ccccc3)[n+](C)c3ccccc32)C1 (stereo unspecified),9.63 µM
16,CC1CCN(CC(CS(=O)(=O)c2ccc([N+](=O)[O-])cc2)N2CCC(C)CC2)CC1 (stereo unspecified),18.9 µM
17,Cc1ccc(-n2cc(CNCCCn3ccnc3C)c(-c3ccc(F)cc3)n2)cc1,15.8 µM
18,COc1cc(NC(=O)COc2ccccc2[N+](=O)[O-])ccc1NC(=O)c1cccs1,26.7 µM
19,CCN(CC)CCNC(=O)C1CCN(S(=O)(=O)c2c(C)noc2/C=C/c2ccccc2F)CC1,30.4 µM
20,COc1ccc(C[C@H]2CN3C(=NC[C@@H]3C(C)C)N2CCNC(=O)c2ccc(C)c(Br)c2)cc1,27.1 µM
21,O=C(Nc1ccc(N2CCN(C(=O)c3ccc(Cl)cc3)CC2)cc1)c1ccc([N+](=O)[O-])o1,16.7 µM
22,O=C(COC(=O)c1ccccc1C(=O)c1ccc(Cl)c([N+](=O)[O-])c1)NC1CC1,15.6 µM
23,O=C(CCl)Nc1cccc(-c2cnc3ccccc3n2)c1,15.2 µM
24,CC(C)Oc1ccc(C(CCNCc2ccc(O)cc2)c2ccccc2)cc1 (stereo unspecified),32.9 µM

# From PubChem BioAssay AID493191 (Broad Institute, 2011)
